Results on 18 compounds are retold here after BindingDB's records for doi:10.1021/jm0703035 (Research Triangle Institute, 2007).

SMILES strings stand for the structures.

One assay deals with Transporter (Rattus norvegicus, UniProt Q63380). As to the kind of experiment: Ligand Binding Assay. Here is the method: Brains from male Sprague-Dawley rats were removed, dissected, and rapidly frozen. Ligand binding experiments were conducted in assay tubes containing radioligand, rat membrane tissue, and test compounds. Incubations were terminated by filtration with through GF/B filters. Results were analyzed using the Equilibrium Binding Data Analysis software (EBDA, Biosoft).

In assay [1] the target is Sodium-dependent noradrenaline transporter (Homo sapiens, UniProt P23975). In words: Ligand Binding Assay.
Sequence of Sodium-dependent noradrenaline transporter (P23975 whole entry): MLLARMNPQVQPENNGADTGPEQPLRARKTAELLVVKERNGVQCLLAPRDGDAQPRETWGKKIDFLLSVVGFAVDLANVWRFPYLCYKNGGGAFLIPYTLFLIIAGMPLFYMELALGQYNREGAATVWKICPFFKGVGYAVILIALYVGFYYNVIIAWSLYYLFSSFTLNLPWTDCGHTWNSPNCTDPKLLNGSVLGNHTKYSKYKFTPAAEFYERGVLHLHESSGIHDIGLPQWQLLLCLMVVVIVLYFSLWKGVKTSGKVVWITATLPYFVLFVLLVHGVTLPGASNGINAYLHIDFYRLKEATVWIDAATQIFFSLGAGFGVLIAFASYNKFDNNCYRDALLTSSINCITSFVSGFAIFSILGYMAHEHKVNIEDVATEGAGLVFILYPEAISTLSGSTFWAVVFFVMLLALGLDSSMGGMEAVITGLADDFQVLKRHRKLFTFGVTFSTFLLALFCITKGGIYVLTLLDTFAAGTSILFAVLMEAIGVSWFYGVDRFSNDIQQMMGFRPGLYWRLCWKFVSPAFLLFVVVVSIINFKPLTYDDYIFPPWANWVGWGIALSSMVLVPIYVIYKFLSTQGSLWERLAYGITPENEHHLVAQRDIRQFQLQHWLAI

Sequence of Transporter (Q63380 whole entry): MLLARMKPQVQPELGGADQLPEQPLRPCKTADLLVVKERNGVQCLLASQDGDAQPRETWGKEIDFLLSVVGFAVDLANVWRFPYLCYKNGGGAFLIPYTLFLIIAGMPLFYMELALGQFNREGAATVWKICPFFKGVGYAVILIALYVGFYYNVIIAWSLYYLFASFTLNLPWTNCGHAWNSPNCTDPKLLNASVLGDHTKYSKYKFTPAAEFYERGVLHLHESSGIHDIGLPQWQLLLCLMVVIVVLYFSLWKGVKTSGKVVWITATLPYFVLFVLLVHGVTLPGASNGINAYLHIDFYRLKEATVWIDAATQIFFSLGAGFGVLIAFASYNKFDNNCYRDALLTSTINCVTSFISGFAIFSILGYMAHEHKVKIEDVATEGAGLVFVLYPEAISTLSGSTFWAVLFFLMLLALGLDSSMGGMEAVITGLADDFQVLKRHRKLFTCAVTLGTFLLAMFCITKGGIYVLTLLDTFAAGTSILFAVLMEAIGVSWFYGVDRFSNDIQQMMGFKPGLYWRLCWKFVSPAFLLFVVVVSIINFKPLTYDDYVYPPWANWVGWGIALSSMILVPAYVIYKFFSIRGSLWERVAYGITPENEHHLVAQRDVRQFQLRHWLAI

As for `CN1[C@H]2CC[C@@H]1[C@@H](c1ncc(-c3ccc(Cl)c(Cl)c3)s1)[C@@H](c1ccc(Cl)cc1)C2` [2-[(1R,2S,3S,5S)-3-(4-chlorophenyl)-8-methyl-8-azabicyclo[3.2.1]octan-2-yl]-5-(3,4-dichlorophenyl)-1,3-thiazole], the Ki on Transporter is > 2 µM.

Regarding `Cc1ccc([C@H]2C[C@@H]3CC[C@H]([C@H]2c2ncc(-c4cccc(Br)c4)s2)N3C)cc1` [5-(3-bromophenyl)-2-[(1R,2S,3S,5S)-8-methyl-3-(4-methylphenyl)-8-azabicyclo[3.2.1]octan-2-yl]-1,3-thiazole], on Transporter, the Ki was > 2 µM. As to `COc1ccc(-c2cnc([C@H]3[C@@H](c4ccc(Cl)cc4)C[C@@H]4CC[C@H]3N4C)s2)cc1OC` [2-[(1R,2S,3S,5S)-3-(4-chlorophenyl)-8-methyl-8-azabicyclo[3.2.1]octan-2-yl]-5-(3,4-dimethoxyphenyl)-1,3-thiazole], the Ki on Transporter is > 2 µM. On to `CN1[C@H]2CC[C@@H]1[C@@H](c1ncc(-c3ccc(F)cc3)s1)[C@@H](c1ccc(Cl)cc1)C2` [2-[(1R,2S,3S,5S)-3-(4-chlorophenyl)-8-methyl-8-azabicyclo[3.2.1]octan-2-yl]-5-(4-fluorophenyl)-1,3-thiazole], for which the Ki on Transporter is > 2 µM. `CN1[C@H]2CC[C@@H]1[C@@H](c1ncc(-c3cccc([N+](=O)[O-])c3)s1)[C@@H](c1ccc(Cl)cc1)C2` [2-[(1R,2S,3S,5S)-3-(4-chlorophenyl)-8-methyl-8-azabicyclo[3.2.1]octan-2-yl]-5-(3-nitrophenyl)-1,3-thiazole]: the Ki at Transporter was > 2 µM. On to `Cc1ccc([C@H]2C[C@@H]3CC[C@H]([C@H]2c2ncc(-c4ccc([N+](=O)[O-])cc4)s2)N3C)cc1` [2-[(1R,2S,3S,5S)-8-methyl-3-(4-methylphenyl)-8-azabicyclo[3.2.1]octan-2-yl]-5-(4-nitrophenyl)-1,3-thiazole], for which the Ki on Transporter is > 2 µM.

Take `COc1ccc(-c2cnc([C@H]3[C@@H](c4ccc(C)cc4)C[C@@H]4CC[C@H]3N4C)s2)cc1` [5-(4-methoxyphenyl)-2-[(1R,2S,3S,5S)-8-methyl-3-(4-methylphenyl)-8-azabicyclo[3.2.1]octan-2-yl]-1,3-thiazole]: in assay [1], the EC50 is 1.81 µM. Moreover, the Ki on Transporter is > 2 µM.

As to `CN1[C@H]2CC[C@@H]1[C@@H](c1ncc(-c3ccc(Br)cc3)s1)[C@@H](c1ccc(Cl)cc1)C2` [5-(4-bromophenyl)-2-[(1R,2S,3S,5S)-3-(4-chlorophenyl)-8-methyl-8-azabicyclo[3.2.1]octan-2-yl]-1,3-thiazole], at Transporter, the Ki was > 2 µM.

Turning to `COc1ccc(-c2cnc([C@H]3[C@@H](c4ccc(C)cc4)C[C@@H]4CC[C@H]3N4C)s2)cc1OC` [5-(3,4-dimethoxyphenyl)-2-[(1R,2S,3S,5S)-8-methyl-3-(4-methylphenyl)-8-azabicyclo[3.2.1]octan-2-yl]-1,3-thiazole], the Ki on Transporter is > 2 µM. Consider `Cc1ccc([C@H]2C[C@@H]3CC[C@H]([C@H]2c2ncc(-c4ccc(Cl)cc4)s2)N3C)cc1` [5-(4-chlorophenyl)-2-[(1R,2S,3S,5S)-8-methyl-3-(4-methylphenyl)-8-azabicyclo[3.2.1]octan-2-yl]-1,3-thiazole], for which the Ki on Transporter was > 2 µM. For the compound `COc1ccc(-c2cnc([C@H]3[C@@H](c4ccc(Cl)cc4)C[C@@H]4CC[C@H]3N4C)s2)cc1` [2-[(1R,2S,3S,5S)-3-(4-chlorophenyl)-8-methyl-8-azabicyclo[3.2.1]octan-2-yl]-5-(4-methoxyphenyl)-1,3-thiazole], the Ki on Transporter was > 2 µM. `Cc1ccc([C@H]2C[C@@H]3CC[C@H]([C@H]2c2ncc(-c4ccc(Cl)c(Cl)c4)s2)N3C)cc1` [5-(3,4-dichlorophenyl)-2-[(1R,2S,3S,5S)-8-methyl-3-(4-methylphenyl)-8-azabicyclo[3.2.1]octan-2-yl]-1,3-thiazole] had an EC50 in assay [1] of 4 µM. The Ki at Transporter is > 2 µM. For the compound `CN1[C@H]2CC[C@@H]1[C@@H](c1ncc(-c3ccc([N+](=O)[O-])cc3)s1)[C@@H](c1ccc(Cl)cc1)C2` [2-[(1R,2S,3S,5S)-3-(4-chlorophenyl)-8-methyl-8-azabicyclo[3.2.1]octan-2-yl]-5-(4-nitrophenyl)-1,3-thiazole], the Ki at Transporter was > 2 µM. Take `Cc1ccc([C@H]2C[C@@H]3CC[C@H]([C@H]2c2ncc(-c4cccc([N+](=O)[O-])c4)s2)N3C)cc1` [2-[(1R,2S,3S,5S)-8-methyl-3-(4-methylphenyl)-8-azabicyclo[3.2.1]octan-2-yl]-5-(3-nitrophenyl)-1,3-thiazole]: at Transporter, the Ki is > 4.3 µM.

In the case of `Cc1ccc([C@H]2C[C@@H]3CC[C@H]([C@H]2c2ncc(-c4ccc(F)cc4)s2)N3C)cc1` [5-(4-fluorophenyl)-2-[(1R,2S,3S,5S)-8-methyl-3-(4-methylphenyl)-8-azabicyclo[3.2.1]octan-2-yl]-1,3-thiazole], the Ki on Transporter is > 2 µM. Compound `CN1[C@H]2CC[C@@H]1[C@@H](c1ncc(-c3ccccc3)s1)[C@@H](c1ccc(Cl)cc1)C2` [2-[(1R,2S,3S,5S)-3-(4-chlorophenyl)-8-methyl-8-azabicyclo[3.2.1]octan-2-yl]-5-phenyl-1,3-thiazole] returned an EC50 in assay [1] of 0.75 µM. With `CN1[C@H]2CC[C@@H]1[C@@H](c1ncc(-c3ccc(Cl)cc3)s1)[C@@H](c1ccc(Cl)cc1)C2` [5-(4-chlorophenyl)-2-[(1R,2S,3S,5S)-3-(4-chlorophenyl)-8-methyl-8-azabicyclo[3.2.1]octan-2-yl]-1,3-thiazole], the Ki at Transporter was > 2 µM. Turning to `CN1[C@H]2CC[C@@H]1[C@@H](c1ncc(-c3cccc(Br)c3)s1)[C@@H](c1ccc(Cl)cc1)C2` [5-(3-bromophenyl)-2-[(1R,2S,3S,5S)-3-(4-chlorophenyl)-8-methyl-8-azabicyclo[3.2.1]octan-2-yl]-1,3-thiazole], on Transporter, the Ki is > 2 µM.

For orientation: Ki means the dissociation constant of the complex between target and ligand, obtained from inhibition or displacement. The low end stands for a stronger hold on the target, the high end for a looser hold on the target. Broadly, the EC50 is the concentration needed to bring the measured effect to its halfway point. Low values mean a more potent agent, high ones a less potent agent.
